Results reported in patent US20090023637A1, “Methods for detecting and treating interstitial cystitis” (priority 2006, published 2009).

Tests used:
rat bladder [1] = assay: Evaluation of bladder overactivity in rodents (urodynamics), Example 4; assay type: in vivo, Sprague-Dawley rats; settings: intravesical infusion; PS 30 mg/mL, toxic factor 15 mg/mL, or PPS 10 mg/ml + toxic factor 15 mg/ml, followed by 400 mM KCl for 30 minutes
From the text: (§1) After a few days of acclimatization, three groups (n=9 each) of adult male Sprague-Dawley rats (325-350 g) underwent urodynamics evaluation of bladder hyperactivity before and after intravesical infusion of a test substance (PS, urinary toxic factor, or toxic factor plus PPS) followed by intravesical KCl.^4
The procedure was as follows: The rats were anesthetized with a subcutaneous injection of urethane (1.2 g/Kg) and a 1 cm incision made along the centerline of the lower ventral abdomen. […] During the continuous filling bladder cystometry, the pressure was recorded with the transducer using the program LabView (National Instruments, TX).
To induce hyperactivity, the bladder was first infused with warm 0.9% saline (37° C.) at 40 μL/min (2.4 mL/hr) and at least 20 minutes of stable voiding cycles recorded during infusion. The pressure threshold (PT, pressure at which voiding initializes) and peak pressure (PP, pressure maximum or amplitude of bladder contractions) were recorded. Frequency of contractions and inter-contractile interval (ICI) were recorded, along with the percentage of non-voiding contractions (% NVC, contractions where the PP is greater than 2 cm H2O and less than the TP, thus not resulting in a void). […]

rat bladder [2] = assay: Evaluation of bladder overactivity in rodents (urodynamics), Example 2; assay type: in vivo, Sprague-Dawley rats; settings: intravesical infusion; TF 15 mg/mL alone or mixed 1:1 with unmodified THP or THP-d 10 mg/ml, followed by 400 mM KCl for 30 min
Protocol: After a few days of acclimatization, adult male SD rats underwent urodynamics evaluation of bladder hyperactivity before and after intravesical infusion of a test substance^8 (TF or TF plus unmodified THP or TF plus THP-d) followed by intravesical KCl. The procedure for the in vivo rat study was performed as described previously.^23
After baseline measurements of pressure threshold, peak pressure, frequency of contractions, inter-contractile interval, and percentage of nonvoiding contractions (NVC) were recorded as previously described,^23 rats were infused with the test solution. One group of animals received an infusion of TF (15 mg/mL). To test the effect of desialylation on the ability of THP to attenuate the bladder hyperactivity induced by TF and KCl, second and third groups of animals received an infusion of a mixture of unmodified THP or THP-d 10 mg/ml and TF (15 mg/ml) mixed in a ratio of 1:1.
Infusion of the test solution was followed by infusion of 400 mM KCl for 30 min^8 and urodynamics measurements were repeated.

rat bladder [3] = assay: Evaluation of bladder overactivity in rodents (urodynamics, KCl infusion after test substance), Example 1; assay type: in vivo, Sprague-Dawley rats; settings: intravesical infusion; TF 15 mg/mL or THP 10 mg/ml + TF 15 mg/ml 1:1, followed by 400 mM KCl for 30 minutes
From the text: as §1, with “two” for “three”, “(TF” for “(PS, urinary toxic factor,”, “TF” for “toxic factor”, “THP)” for “PPS)”, “KCl.^8 The procedure was as follows.” for “KCl.^4”
The rats were anesthetized with a subcutaneous injection of urethane (1.2 g/Kg) and a 1 cm incision was made along the centerline of the lower ventral abdomen. Once the bladder was exteriorized, a 22 gauge (0.7 mm) catheter (Intracath, Becton-Dickinson, OH) was inserted into the bladder dome and sutured in place using a purse string suture with 4.0 tapered prolene suture. The bladder was returned to the abdomen, with the line escaping through the incision. […] During the continuous filling bladder cystometry, the pressure was recorded with the transducer using the program LabView (National Instruments, TX).
To induce hyperactivity, the bladder was first infused with warm (37° C.) 0.9% saline or 400 mM KCl (29.8 mg/mL, Abbott Laboratories, IL) at 40 μL/min (2.4 mL/hr) and at least 20 minutes of stable voiding cycles were recorded during infusion. The pressure threshold (PT, pressure at which voiding initializes) and peak pressure (PP, pressure maximum or amplitude of bladder contractions) were recorded. […]

[4] = tested on: human bladder cells (HTB4); assay: Cytotoxicity assay, unmodified versus desialylated THP, Example 2
Protocol: The TF obtained from 2 different pooled urine samples (TF1, TF2) was tested for cytotoxicity using the CellTiter96 Aqueous One Solution Proliferation Assay™ (Promega Corp, Madison, Wis.). Rat urothelial target cells and human HTB4 urothelial cells were plated in 96-well tissue culture plates (Nunclon™) in triplicate (50,000 cells/well). Cells had been maintained in Ham's-M199 tissue culture media supplemented with 10% fetal calf serum (FCS)+antibiotics (Pen-Strep).
For cytotoxicity assay, cells were harvested from seed flasks, washed free of trypsin-EDTA, and resuspended in DME media (without phenol red indicator) −1% FCS (assay media). An aliquot of the cell suspension was counted in a hemocytometer and diluted with assay media to a concentration of 0.5×10^6 cells/ml, from which 100 μl (5×10^4 cells) were added to each well in a 96-well microtiter plate. […] Dose response data was determined beforehand for the TF preparations. […]
After overnight incubation at 37° C., the target cells were washed twice with DME alone (200 μl/well) and fresh DME added to each well (90 μl). Then a tetrazolium compound (MTS-Owen's Reagent) combined with an electron coupling reagent (PES) was added (10 μl/well) per kit protocol and absorbance measured in a plate reader after 30 min incubation at 490 nm and at 630 nm after blanking the plate to DME media containing the tetrazolium compound. […]

[5] = THP zeta potential (mV) measurements; assay type: physicochemical; settings: 0.01M NaCl buffer, pH 7.0 at 25° C.; n=6 in each group
Protocol: Surface charge properties (zeta potential) are measured for THP samples from patients (n=6) and controls (n=6). THP (Biomedical Technologies, Inc.) and fetuin and asialofetuin (Sigma Chemical Co.) standards (50 μg) are similarly measured. Zeta potential and size measurements are made with a Zetasizer Nano ZS instrument and a CGS-3 Goniometer system (Malvern Instruments Inc., Southborough, Mass.) with ancillary software version 4.0. All zeta potential measurements are conducted on rehydrated samples in 0.01M NaCl buffer, pH 7.0 at 25° C., after centrifugation followed by filtration ([…]) to remove any aggregates. Measurements are made in triplicate and the results analyzed by Student's t test for significance.

Compound: [Cl-].[K+] [KCl]
- NVC/minute (nonvoiding contractions) (rat bladder [1]): 0.25 ± 0.064 NVC/minute
- NVC/minute (nonvoiding contractions) (rat bladder [2]): 0.25 ± 0.064 NVC/minute
- NVC/minute (nonvoiding contractions) (rat bladder [3]): 0.25 ± 0.064 NVC/minute

Compound: THP-d: THP desialylated by mild acid hydrolysis in 2.5M acetic acid, 3 hr at 82° C.
- Average cytotoxicity (%) ([4]; HTB4 cells 5 × 10^4/well, THP or THP-d mixed with TF 60 min, overnight incubation, relative to media controls): 13.4%

Compound: control THP: THP isolated from urine of healthy control subjects
- zeta potential [5]: −28.0±2.4 mV

Compound: protamine sulfate
- NVC/minute (nonvoiding contractions) (rat bladder [1]): 1.733 ± 0.55 NVC/minute
- Cytotoxicity LD50 ([4]; footnote to Table 3, known cytotoxic agent): †Cytotoxicity of protamine sulfate, a known cytotoxic agent: LD50 = ~20 μg
